{
  "source": "patent US20260191856A1",
  "about": "(priority 2022, published 2026)",
  "key": {"MOR [1]": {"biological_target": "T1, MOR (Mus musculus, UniProt P42866)", "T1 sequence (P42866 whole entry)": "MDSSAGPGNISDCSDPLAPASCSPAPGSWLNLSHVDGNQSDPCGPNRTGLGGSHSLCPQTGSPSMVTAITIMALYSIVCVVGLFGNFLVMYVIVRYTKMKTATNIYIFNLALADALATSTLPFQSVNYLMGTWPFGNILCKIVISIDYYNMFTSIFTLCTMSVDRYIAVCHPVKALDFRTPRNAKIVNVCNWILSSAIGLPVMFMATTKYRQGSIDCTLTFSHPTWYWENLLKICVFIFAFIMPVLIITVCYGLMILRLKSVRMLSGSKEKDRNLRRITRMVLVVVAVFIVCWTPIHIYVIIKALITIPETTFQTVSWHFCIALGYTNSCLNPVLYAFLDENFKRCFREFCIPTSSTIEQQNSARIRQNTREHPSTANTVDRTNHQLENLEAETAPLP", "test": "biochemical", "type": "binding", "parameters": "made in house; host or cells: Sf9 insect cell membranes (baculovirus)"}, "MOR [2]": {"biological_target": "T1, MOR", "type": "biochemical", "parameters": "FLAG (N); hexa-histidine (C); made in house; host or cells: Spodoptera frugiperda (Sf9) for MOR; Trichoplusia ni for Gi"}, "male C57BL/6J mice [3]": {"system": "male C57BL/6J mice", "test": "Locomotor and respiration effects (CLAMS)"}, "male C57BL/6J mice [4]": {"system": "male C57BL/6J mice", "test": "Naloxone-precipitated opioid withdrawal assay"}, "male C57BL/6J mice [5]": {"system": "male C57BL/6J mice", "test": "Conditioned place preference (CPP) assay", "type": "in vivo, mouse", "settings": "vehicle (−30 min) + naloxone 0.1 mg/kg s.c. (−15 min)"}, "male C57BL/6J mice [6]": {"system": "male C57BL/6J mice", "settings": "mouse, in vivo"}, "CB1": {"biological_target": "CB1 (Homo sapiens, UniProt P21554)", "sequence (P21554 whole entry)": "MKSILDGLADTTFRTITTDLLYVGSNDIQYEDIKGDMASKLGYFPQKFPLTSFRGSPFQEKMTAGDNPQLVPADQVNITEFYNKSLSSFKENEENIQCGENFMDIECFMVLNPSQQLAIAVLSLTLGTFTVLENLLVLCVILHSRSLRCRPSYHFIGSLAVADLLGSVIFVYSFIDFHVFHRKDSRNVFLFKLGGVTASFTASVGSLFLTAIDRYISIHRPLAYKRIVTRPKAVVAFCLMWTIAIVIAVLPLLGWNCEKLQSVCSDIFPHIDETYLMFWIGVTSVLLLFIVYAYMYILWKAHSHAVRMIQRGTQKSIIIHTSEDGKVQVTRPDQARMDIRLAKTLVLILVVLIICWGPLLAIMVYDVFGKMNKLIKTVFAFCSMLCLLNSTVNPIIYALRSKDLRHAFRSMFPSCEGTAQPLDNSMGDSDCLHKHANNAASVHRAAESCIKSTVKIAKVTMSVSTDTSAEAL", "test": "GTP turnover assay with CB1 and Gi1", "type": "biochemical", "parameters": "Purification of human full-length CB1 with an N-terminal FLAG and C-terminal hexahistidine tags; FLAG (N); hexahistidine (C); made in house; host or cells: insect cells (baculovirus, Expression Systems) for CB1; Trichoplusia ni for Gi"}, "[7]": {"settings": "Condition 1 saline + NAL (10 mg/kg)"}, "[8]": {"settings": "Condition 2 morphine + NAL (10 mg/kg)"}, "[9]": {"settings": "Condition 3 morphine + low NAL (0.1 mg/kg)"}, "[10]": {"settings": "Condition 3 morphine + low NAL (0.1 mg/kg), listed as NAL"}},
  "note": "Entries after “also recorded” stand apart in the source; their conditions may differ. Marks after values point to notes of the source that are not given here.",
  "data": [
    {"smiles": "CNC(=O)[C@H](Cc1ccc(C#N)cc1)NCc1csc(-c2cccc(-c3ccc4cc(N)ccc4c3)c2)n1", "note": "[Compound A1]", "values": [
      {"measurement": "decrease in naloxone affinity for the receptor", "setting": "MOR [1]; in the presence of A1", "result": "~ 6 fold"},
      {"measurement": "effect on binding of 3H-naloxone", "setting": "MOR [1]; increasing amounts of compound, MOR-expressing membranes", "result": "decrease binding of ^3H-naloxone to MOR-expressing membranes"},
      {"measurement": "GTP turnover in the absence of orthosteric ligand", "setting": "MOR [2]", "result": "can induce GTP turnover to similar levels observed for the full agonist DAMGO"},
      {"measurement": "effect on met-enkephalin induced activation of G protein (GTP turnover)", "setting": "MOR [2]", "result": "enhance met-enkephalin induced activation of G protein"},
      {"measurement": "efficacy of modulation of met-enkephalin-induced GTP turnover", "setting": "MOR [2]", "result": "more efficacious at improving GTP turnover compared to A2; also recorded: highly effective at enhancing activity, fully depleting nucleotide under these conditions"},
      {"measurement": "potency in GTP turnover assay", "setting": "MOR [2]", "result": "low double-digit micromolar"}
    ]},
    {"smiles": "CNC(=O)[C@H](Cc1ccc(C)c(OC)c1)NC(=O)CSc1ccc2ccccc2c1-c1cncc(OCc2ccccc2)c1", "note": "[Compound B1, (S)-2-(2-((1-(5-(benzyloxy)pyridin-3-yl)naphthalen-2-yl)thio)acetamido)-3-(3-methoxy-4-methylphenyl)-N-methylpropanamide]", "values": [
      {"measurement": "potency of B1 relative to B2, 3H-naloxone results", "setting": "MOR [1]; FIG. 5A", "result": "≥ 100", "unit": "fold"},
      {"measurement": "potency of B1 relative to B2, GTP turnover assays", "setting": "MOR [2]", "result": "≥ 100"}
    ]},
    {"smiles": "CN1CC[C@]23c4c5ccc(O)c4O[C@H]2[C@@H](O)C=C[C@H]3[C@H]1C5", "note": "[Morphine]", "values": [
      {"measurement": "ambulations", "setting": "male C57BL/6J mice [3]; Morphine (20 mg/kg, s.c.)", "result": "significantly increased ambulations for over 140 min"},
      {"measurement": "breathing rate", "setting": "male C57BL/6J mice [3]; Morphine (20 mg/kg, s.c.)", "result": "decreased breathing rate through 100 min"}
    ]},
    {"smiles": "C=CCN1CC[C@]23c4c5ccc(O)c4O[C@H]2C(=O)CC[C@@]3(O)[C@H]1C5", "note": "[Naloxone]", "values": [
      {"measurement": "effect of low-dose naloxone pretreatment on morphine-induced hyperlocomotion", "setting": "male C57BL/6J mice [3]; naloxone 0.1 mg/kg", "result": "ineffective in ameliorating morphine-induced hyperlocomotion"},
      {"measurement": "effect of low-dose naloxone pretreatment on morphine-induced respiratory depression", "setting": "male C57BL/6J mice [3]; naloxone 0.1 mg/kg", "result": "observed to reduce morphine-induced respiratory depression"},
      {"measurement": "Forepaw Tremor, Avg", "setting": "male C57BL/6J mice [4]; [7]", "result": 26.7},
      {"measurement": "Jumping Frequency, Avg", "setting": "male C57BL/6J mice [4]; [7]", "result": 2.7},
      {"measurement": "Rearing Frequency, Avg", "setting": "male C57BL/6J mice [4]; [7]", "result": 23.5},
      {"measurement": "Stool Consistency, Avg", "setting": "male C57BL/6J mice [4]; [7]", "result": 1.6},
      {"measurement": "Straightening, Avg", "setting": "male C57BL/6J mice [4]; [7]", "result": 0.1},
      {"measurement": "Teeth Chattering Frequency, Avg", "setting": "male C57BL/6J mice [4]; [7]", "result": 1},
      {"measurement": "Forepaw Tremor, Avg", "setting": "male C57BL/6J mice [4]; [8]", "result": 26.7},
      {"measurement": "Jumping Frequency, Avg", "setting": "male C57BL/6J mice [4]; [8]", "result": "76.9*"},
      {"measurement": "Rearing Frequency, Avg", "setting": "male C57BL/6J mice [4]; [8]", "result": "2.64*"},
      {"measurement": "Stool Consistency, Avg", "setting": "male C57BL/6J mice [4]; [8]", "result": "precipitates significant diarrhea"},
      {"measurement": "Straightening, Avg", "setting": "male C57BL/6J mice [4]; [8]", "result": 0.55},
      {"measurement": "Teeth Chattering Frequency, Avg", "setting": "male C57BL/6J mice [4]; [8]", "result": "54.2*"},
      {"measurement": "Stool Consistency, Avg", "setting": "male C57BL/6J mice [4]; Condition 2 morphine + NAL (10 mg/kg), listed as NAL", "result": "7.46*"},
      {"measurement": "Forepaw Tremor, Avg", "setting": "male C57BL/6J mice [4]; [9]", "result": 7.3},
      {"measurement": "Jumping Frequency, Avg", "setting": "male C57BL/6J mice [4]; [9]", "result": "caused significant withdrawal symptoms"},
      {"measurement": "Rearing Frequency, Avg", "setting": "male C57BL/6J mice [4]; [9]", "result": 22.2},
      {"measurement": "Stool Consistency, Avg", "setting": "male C57BL/6J mice [4]; [9]", "result": "precipitates significant diarrhea"},
      {"measurement": "Straightening, Avg", "setting": "male C57BL/6J mice [4]; [9]", "result": 3.1},
      {"measurement": "Teeth Chattering Frequency, Avg", "setting": "male C57BL/6J mice [4]; [9]", "result": "had no effect relative to saline alone"},
      {"measurement": "Jumping Frequency, Avg", "setting": "male C57BL/6J mice [4]; [10]", "result": "45.4*†"},
      {"measurement": "Stool Consistency, Avg", "setting": "male C57BL/6J mice [4]; [10]", "result": "9.3*"},
      {"measurement": "Teeth Chattering Frequency, Avg", "setting": "male C57BL/6J mice [4]; [10]", "result": "0.7+"},
      {"measurement": "morphine CPP after vehicle and low-dose naloxone", "setting": "male C57BL/6J mice [5]", "result": "did not prevent significant morphine CPP"},
      {"measurement": "antagonism of morphine-induced antinociception by low-dose naloxone alone", "setting": "male C57BL/6J mice [6]", "result": "no significant antagonism"}
    ]},
    {"smiles": "Cc1ccc2c(C(C[N+](=O)[O-])c3cccs3)c(-c3ccccc3)[nH]c2c1", "note": "(centres unmarked) [ZCZ, reference compound]", "values": [
      {"measurement": "effect on Gi1 GTP turnover, AEA-bound CB1", "setting": "CB1", "result": "causes increased Gi1 turnover for both FUB and AEA, equally"},
      {"measurement": "effect on Gi1 GTP turnover, FUB-bound CB1", "setting": "CB1", "result": "causes increased Gi1 turnover for both FUB and AEA, equally"}
    ]}
  ]
}
